US20240398777A1, “METHOD OF TREATING SYMPTOMS OF PRADER-WILLI SYNDROME” (HARMONY BIOSCIENCES, LLC, priority 2023, published 2024)

Tests used:
Type in all cases: in vivo, human
[1] = tested on: excessive daytime sleepiness (EDS) in subjects with PWS; experiment: Phase 2 randomized placebo-controlled study: ESS-CHAD (parent/caregiver version)
Protocol: (§1) A study was carried out to evaluate the efficacy and safety of pitolisant for the treatment of EDS in subjects with PWS. This was a phase 2, randomized, placebo-controlled, proof-of-concept study. Children (aged 6 to <12 years), adolescents (aged 12 to <18 years), and adults (aged 18-65 years) with a confirmed diagnosis of PWS were randomly assigned to receive low-dose pitolisant (8.9 mg in children, 13.35 mg in adolescents, and 17.8 mg in adults) or high dose pitolisant (17.8 mg in children, 26.7 mg in adolescents, and 35.6 mg in adults), or placebo (see FIG. 1). All doses are expressed in terms of pitolisant freebase.
(§2) The 11-week double-blind treatment period consisted of a 3-week titration phase and an 8-week stable-dose phase.
The primary efficacy endpoint was the change from baseline to Week 11 in total score for the parent/caregiver version of the Epworth Sleepiness Scale for Children and Adolescents (ESS-CHAD), which is a validated measurement for sleep propensity. (See Janssen K C, et al. Sleep Med. 2017; 33:30-35; see also Patel V P, et al. J. Clin. Sleep Med. 2022; 18 (2): 485-496). A separate analysis was treatment response defined as ESS-CHAD score reduction of ≥3 points from baseline or Week 11 score of ≤10.

[2] = tested on: EDS severity in subjects with PWS; experiment: Phase 2 study: Caregiver Global Impression of Severity (CaGI-S) for EDS; conditions: Week 11
Protocol: as §1, §2
(§3) Secondary/exploratory endpoints included change from baseline in Caregiver Global Impression of Severity (CaGI-S) for EDS, behavioral disturbance (Aberrant Behavior Checklist-2 [ABC-2]), and hyperphagia (Hyperphagia Questionnaire for Clinical Trials [HQ-CT] in conjunction with the Food Safe Zone Questionnaire [FSZQ]). The primary time frame of interest was from baseline to Week 11.

[3] = tested on: behavioral problems in subjects with PWS; experiment: Phase 2 study: Aberrant Behavior Checklist-2 (ABC-2)
Protocol: as §1, §2, §3
The ABC-2 is a widely used and validated questionnaire that can assess changes in behavioral problems, and is particularly suitable for assessing behavioral changes in subjects with intellectual and developmental disabilities. The ABC-2 questions are subdivided into five domains (irritability, social withdrawal, hyperactivity/noncompliance, inappropriate speech, and stereotypic behavior). Generally, a reduction of 2 or more points in a domain of the ABC-2 is considered clinically meaningful. ABC-2 was used in this trial to determine if pitolisant improved or reduced behavioral problems experienced by subjects living with PWS.

[4] = tested on: hyperphagia in subjects with PWS; experiment: Phase 2 study: Hyperphagia Questionnaire for Clinical Trials (HQ-CT); conditions: Week 11; children (6 to <12 years) and adults (18 to 65 years)
Protocol: as §1, §2, §3

patients with PWS = experiment: Phase 2 study: treatment-emergent adverse events; conditions: for Treatment-related TEAEs: possibly, probably, or definitely related to study drug
Protocol: as §1, §2

[5] = adolescents (12 to <18 years), higher-dose, n = 6
[6] = adolescents (12 to <18 years), lower-dose, n = 4
[7] = adults (18 to 65 years), higher-dose, n = 5
[8] = adults (18 to 65 years), lower-dose, n = 3
[9] = all patient groups, high dose pitolisant, n = 22
[10] = all patient groups, low dose pitolisant, n = 18
[11] = pitolisant-treated patients (doses pooled)

## Clc1ccc(CCCOCCCN2CCCCC2)cc1 [pitolisant]
[1]; 6 to <12 years, high-dose pitolisant (17.8 mg), n = 11
  ESS-CHAD (Parent/Caregiver Version) mean change from baseline at Week 11: −5.5 points
[1]; 6 to <12 years, low-dose pitolisant (8.9 mg), n = 12
  ESS-CHAD (Parent/Caregiver Version) mean change from baseline at Week 11: −3.7 points
[1]; 12 to <18 years, high-dose pitolisant (26.7 mg), n = 6
  ESS-CHAD (Parent/Caregiver Version) mean change from baseline at Week 11: −4.2 points
[1]; 12 to <18 years, low-dose pitolisant (13.35 mg), n = 4
  ESS-CHAD (Parent/Caregiver Version) mean change from baseline at Week 11: −4.5 points
[1]; 18 to 65 years, high-dose pitolisant (35.6 mg), n = 5
  ESS-CHAD (Parent/Caregiver Version) mean change from baseline at Week 11: −4.4 points
[1]; 18 to 65 years, low-dose pitolisant (17.8 mg), n = 3
  ESS-CHAD (Parent/Caregiver Version) mean change from baseline at Week 11: −5.0 points
[1]; overall patient population, end of treatment, both dose groups
  mean improvement from baseline in ESS-CHAD score versus placebo: greater for both pitolisant dose groups compared with the placebo group
[1]; study completers, Week 11, driven primarily by high-dose group
  ESS-CHAD response rate (score reduction of ≥3 points from baseline or score of ≤10 at Week 11) versus placebo: higher for pitolisant versus placebo
[2]; children (6 to <12 years) and adults
  reduction in CaGI-S score versus placebo: greater for pitolisant compared with placebo
[2]; higher-dose pitolisant group
  CaGI-S mean (SD) change: −1.1 (1.1)
[2]; lower-dose pitolisant group
  CaGI-S mean (SD) change: −1.0 (1.2)
[3]; Week 11, children (6 to <12 years), higher-dose pitolisant
  mean reduction on all ABC-2 domains versus placebo: greater for higher-dose pitolisant compared with placebo
[3]; [5]
  ABC-2 Hyperactivity/noncompliance mean change from baseline to Week 11: −3.8
  ABC-2 Inappropriate speech mean change from baseline to Week 11: −1.7
  ABC-2 Irritability mean change from baseline to Week 11: −5.0
  ABC-2 Social withdrawal mean change from baseline to Week 11: −3.7
  ABC-2 Stereotypic behavior mean change from baseline to Week 11: −0.5
[3]; [6]
  ABC-2 Hyperactivity/noncompliance mean change from baseline to Week 11: 0.0
  ABC-2 Inappropriate speech mean change from baseline to Week 11: −0.8
  ABC-2 Irritability mean change from baseline to Week 11: −4.8
  ABC-2 Social withdrawal mean change from baseline to Week 11: −3.3
  ABC-2 Stereotypic behavior mean change from baseline to Week 11: 0.3
[3]; [7]
  ABC-2 Hyperactivity/noncompliance mean change from baseline to Week 11: −5.4
  ABC-2 Inappropriate speech mean change from baseline to Week 11: −2.2
  ABC-2 Irritability mean change from baseline to Week 11: −2.8
  ABC-2 Social withdrawal mean change from baseline to Week 11: −2.4
  ABC-2 Stereotypic behavior mean change from baseline to Week 11: −2.6
[3]; [8]
  ABC-2 Hyperactivity/noncompliance mean change from baseline to Week 11: 1.0
  ABC-2 Inappropriate speech mean change from baseline to Week 11: 0.7
  ABC-2 Irritability mean change from baseline to Week 11: −3.0
  ABC-2 Social withdrawal mean change from baseline to Week 11: −1.0
  ABC-2 Stereotypic behavior mean change from baseline to Week 11: −0.3
[3]; [9]
  ABC-2 Hyperactivity/noncompliance mean change from baseline to Week 11: −4.6
  ABC-2 Inappropriate speech mean change from baseline to Week 11: −2.0
  ABC-2 Irritability mean change from baseline to Week 11: −4.8
  ABC-2 Social withdrawal mean change from baseline to Week 11: −4.0
  ABC-2 Stereotypic behavior mean change from baseline to Week 11: −1.2
[3]; [10]
  ABC-2 Hyperactivity/noncompliance mean change from baseline to Week 11: −0.4
  ABC-2 Inappropriate speech mean change from baseline to Week 11: −0.3
  ABC-2 Irritability mean change from baseline to Week 11: −3.4
  ABC-2 Social withdrawal mean change from baseline to Week 11: −1.9
  ABC-2 Stereotypic behavior mean change from baseline to Week 11: −0.1
[3]; high dose group
  reductions in three ABC-2 domains including irritability and hyperactivity/noncompliance: more than 4 points
[4]
  reduction in HQ-CT score versus placebo: greater for pitolisant compared with placebo
Patients with PWS; high-dose pitolisant, n = 22
  Anxiety: 1 (4.5) n (%)
  Any TEAE: 11 (50.0) n (%)
  Irritability: 2 (9.1) n (%)
  Most common TEAEs: 1 (4.5) n (%)
  Serious TEAEs: 0 n (%)
  Severe TEAEs: 0 n (%)
  Treatment-related TEAEs: 4 (18.2) n (%)
Patients with PWS; low-dose pitolisant, n = 20
  Anxiety: 4 (20.0) n (%)
  Any TEAE: 13 (65.0) n (%)
  Irritability: 3 (15.0) n (%)
  Most common TEAEs: 4 (20.0) n (%)
  Serious TEAEs: 0 n (%)
  Severe TEAEs: 0 n (%)
  Treatment-related TEAEs: 7 (35.0) n (%)
Patients with PWS; patients with PWS
  safety and tolerability versus known safety profile: no new safety signals were observed
Patients with PWS; [11]
  adverse event anxiety, incidence: 13.0%
  adverse event irritability, incidence: 17.4%
